Measured values reported in article PMC3133741 (Journal of medicinal chemistry, 2011).
Bridge positions count the residues as written; N and C are the ends. Square brackets hold non-standard residues; d marks the D form. Peptide text beside a SMILES is read from it. * marks the point of attachment. d(aThr) = C[C@@H](O)[C@@H](N)C(=O)O; Dhb = C/C=C(\N)C(=O)O; Propionyl = CCC(=O)*

How the values were obtained:
TRPV1 [1] = molecular target: T1, TRPV1 (Homo sapiens, UniProt Q8NER1); experiment: TRPV1 antagonism, structure-activity comparison; format: cell-based
T1 sequence (Q8NER1 whole entry): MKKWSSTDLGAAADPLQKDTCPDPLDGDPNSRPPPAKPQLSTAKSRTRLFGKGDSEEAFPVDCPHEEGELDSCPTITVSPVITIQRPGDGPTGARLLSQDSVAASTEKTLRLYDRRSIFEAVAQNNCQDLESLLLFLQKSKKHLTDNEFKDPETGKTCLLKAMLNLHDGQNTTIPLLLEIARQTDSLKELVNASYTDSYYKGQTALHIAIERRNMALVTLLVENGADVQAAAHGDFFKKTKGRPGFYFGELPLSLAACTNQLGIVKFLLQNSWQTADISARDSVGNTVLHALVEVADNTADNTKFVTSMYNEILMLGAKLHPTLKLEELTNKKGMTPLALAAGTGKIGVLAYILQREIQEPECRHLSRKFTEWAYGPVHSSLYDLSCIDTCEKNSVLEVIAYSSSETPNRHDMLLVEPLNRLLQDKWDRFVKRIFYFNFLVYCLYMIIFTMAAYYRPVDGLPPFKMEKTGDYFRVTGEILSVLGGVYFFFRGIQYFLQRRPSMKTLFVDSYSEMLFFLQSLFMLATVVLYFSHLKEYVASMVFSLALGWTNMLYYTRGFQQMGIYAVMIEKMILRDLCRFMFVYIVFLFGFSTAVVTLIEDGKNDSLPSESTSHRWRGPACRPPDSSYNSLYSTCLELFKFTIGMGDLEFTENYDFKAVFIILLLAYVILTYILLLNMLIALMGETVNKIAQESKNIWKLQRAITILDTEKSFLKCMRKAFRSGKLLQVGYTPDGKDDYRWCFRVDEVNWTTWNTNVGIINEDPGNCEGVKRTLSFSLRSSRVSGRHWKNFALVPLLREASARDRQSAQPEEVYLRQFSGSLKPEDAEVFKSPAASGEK

human TRPV1 F660A mutant = human TRPV1 F660A mutant (Homo sapiens, UniProt Q8NER1, F660A); experiment: Calcium flux assay in HEK-293 cells, human TRPV1 F660A mutant; conditions: 375 μM, pre-incubated (Figure 3)
Sequence of human TRPV1 F660A mutant (Q8NER1 whole entry F660A): as the sequence (Q8NER1 whole entry) above, with F660A counted along it

[2] = system: mutant human TRPV1 variants; experiment: Calcium flux assay in HEK-293 cells, three further; conditions: 375 μM, pre-incubated (Figure 3)
TRPV1 [3] = molecular target: T1, TRPV1; experiment: Calcium flux assay in BEAS-2B cells stably overexpressing human TRPV1; format: cell-based; conditions: capsaicin 2.5 μM
human TRPV1 C578A mutant = human TRPV1 C578A mutant (Homo sapiens, UniProt Q8NER1, C578A); experiment: Calcium flux assay in HEK-293 cells, human TRPV1 C578A mutant; conditions: 375 μM, pre-incubated (Figure 3)
Sequence of human TRPV1 C578A mutant (Q8NER1 whole entry C578A): as the sequence (Q8NER1 whole entry) above, with C578A counted along it

human wild type TRPV1 = human wild type TRPV1 (Homo sapiens, UniProt Q8NER1); experiment: Calcium flux assay in HEK-293 cells transfected with wild-type human TRPV1; format: cell-based; conditions: for duration of abolished TRPV1 activity after removal of drug: mouse and human TRPV1 channels
Sequence of human wild type TRPV1 (Q8NER1 whole entry): as the sequence (Q8NER1 whole entry) above

human TRPV1 C621A mutant = human TRPV1 C621A mutant (Homo sapiens, UniProt Q8NER1, C621A); experiment: Calcium flux assay in HEK-293 cells, human TRPV1 C621A mutant; conditions: 375 μM, pre-incubated (Figure 3)
Sequence of human TRPV1 C621A mutant (Q8NER1 whole entry C621A): as the sequence (Q8NER1 whole entry) above, with C621A counted along it

TRPV1 [4] = molecular target: TRPV1 (Mus musculus, UniProt Q704Y3); experiment: Long-term TRPV1 antagonism test in mouse DRG neurons; format: cell-based; conditions: 125 μM, 5 min incubation
Sequence of TRPV1 (Mus musculus, UniProt Q704Y3) (Q704Y3 whole entry): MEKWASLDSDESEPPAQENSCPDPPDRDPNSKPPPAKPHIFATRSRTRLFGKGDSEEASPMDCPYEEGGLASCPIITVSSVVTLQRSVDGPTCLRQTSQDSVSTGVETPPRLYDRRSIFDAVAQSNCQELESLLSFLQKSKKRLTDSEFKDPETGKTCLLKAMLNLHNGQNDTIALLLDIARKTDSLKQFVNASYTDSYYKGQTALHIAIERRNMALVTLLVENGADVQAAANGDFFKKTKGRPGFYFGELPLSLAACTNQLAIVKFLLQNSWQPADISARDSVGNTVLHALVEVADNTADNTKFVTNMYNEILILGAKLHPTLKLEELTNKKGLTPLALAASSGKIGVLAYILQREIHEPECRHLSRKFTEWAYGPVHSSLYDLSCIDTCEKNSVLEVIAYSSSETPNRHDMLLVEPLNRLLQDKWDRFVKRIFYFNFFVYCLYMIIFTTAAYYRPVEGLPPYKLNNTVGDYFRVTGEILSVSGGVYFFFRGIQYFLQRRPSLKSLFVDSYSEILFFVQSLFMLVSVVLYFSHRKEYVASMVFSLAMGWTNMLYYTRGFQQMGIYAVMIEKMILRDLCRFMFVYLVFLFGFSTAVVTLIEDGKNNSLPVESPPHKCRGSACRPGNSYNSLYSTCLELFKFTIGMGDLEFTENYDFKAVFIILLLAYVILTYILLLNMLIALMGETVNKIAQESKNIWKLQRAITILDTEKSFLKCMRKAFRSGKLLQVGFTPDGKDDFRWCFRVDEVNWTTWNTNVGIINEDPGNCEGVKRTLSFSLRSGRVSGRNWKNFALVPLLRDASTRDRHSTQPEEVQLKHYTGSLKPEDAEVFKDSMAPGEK

mouse DRG neurons = experiment: Fluorometric calcium flux assay in mouse DRG primary cell culture; format: cell-based; conditions: 125 μM final concentration; 25 mM KCl 5 min after application, then capsaicin

Compound: C/C=C1\NC(=O)[C@H](C)NC(=O)[C@H](C(C)C)NC(=O)[C@H](NC(=O)[C@H](Cc2ccccc2)NC(=O)[C@@H](CC(C)C)NC(=O)[C@@H](Cc2ccccc2)NC(=O)CC)[C@@H](C)OC1=O [Compound 1, A-3302-B] (Propionyl-[dF][dL]F[d(aThr)]VA[Dhb]; ester 4-C)
- inhibitory activity (in words) (TRPV1 [1]): exhibited inhibitory activity

Compound: C/C=C1\NC(=O)[C@H](C)NC(=O)[C@H](C(C)C)NC(=O)[C@H](NC(=O)[C@H](Cc2ccccc2)NC(=O)[C@@H](CC(C)C)NC(=O)[C@@H](Cc2ccccc2)NC(C)=O)[C@@H](C)OC1=O [Compound 2, A-3302-A] (Ac-[dF][dL]F[d(aThr)]VA[Dhb]; ester 4-C)
- TRPV1 antagonism in F660A mutant (human TRPV1 F660A mutant): complete loss of TRPV1 antagonism
- inhibition of three other TRPV1 mutants [2]: in a manner similar to wild type
- antagonism of capsaicin in direct competition experiments (TRPV1 [3]): antagonize the action of capsaicin on TRPV1
- TRPV1 antagonism in C578A mutant (human TRPV1 C578A mutant): complete loss of TRPV1 antagonism
- inhibitory activity (in words) (TRPV1 [1]): exhibited inhibitory activity
- duration of abolished TRPV1 activity after removal of drug (human wild type TRPV1): > 1 h
- TRPV1 antagonism in C621A mutant (human TRPV1 C621A mutant): complete loss of TRPV1 antagonism

Compound: C/C=C(\NC(=O)[C@H](C)NC(=O)[C@@H](NC(=O)[C@H](NC(=O)[C@H](Cc1ccccc1)NC(=O)[C@@H](CC(C)C)NC(=O)[C@@H](Cc1ccccc1)NC(C)=O)[C@@H](C)O)C(C)C)C(=O)O [Compound 4, Nobilamide A] (Ac-[dF][dL]F[d(aThr)]VA[Dhb]-OH)
- inhibitory activity (in words) (TRPV1 [1]): exhibited inhibitory activity
- recovery of capsaicin response (TRPV1 [4]; three-hour recovery period): recovery was observed after three hours
- capsaicin response after incubation with compound (TRPV1 [4]; capsaicin 100 or 200 nM): initially abolished
- response to capsaicin after application of pure compound (mouse DRG neurons): complete loss of response to capsaicin

Compound: C/C=C(\NC(=O)[C@H](C)NC(=O)[C@@H](NC(=O)[C@H](NC(=O)[C@H](Cc1ccccc1)NC(=O)[C@@H](CC(C)C)NC(=O)[C@@H](Cc1ccccc1)NC(=O)CC)[C@@H](C)O)C(C)C)C(=O)O [Compound 5, Nobilamide B] (Propionyl-[dF][dL]F[d(aThr)]VA[Dhb]-OH)
- TRPV1 antagonism in F660A mutant (human TRPV1 F660A mutant): complete loss of TRPV1 antagonism
- inhibition of three other TRPV1 mutants [2]: in a manner similar to wild type
- antagonism of capsaicin in direct competition experiments (TRPV1 [3]): antagonize the action of capsaicin on TRPV1
- TRPV1 antagonism in C578A mutant (human TRPV1 C578A mutant): complete loss of TRPV1 antagonism
- inhibitory activity (in words) (TRPV1 [1]): exhibited inhibitory activity
- potency with pre-incubation versus co-application with capsaicin (human wild type TRPV1; 375 μM compound, capsaicin 25 μM (Figure 1)): greatly increased with pre-incubation
- stability of inhibitory activity to washes (human wild type TRPV1; 375 μM, 1 h timecourse with washes (Figure 2)): stable through four washes taking place over a 60-min period
- rebound of activity (human wild type TRPV1; after washes, human cells): slight rebound of activity was noticed after one hour
- duration of abolished TRPV1 activity after removal of drug (human wild type TRPV1): > 1 h
- TRPV1 antagonism in C621A mutant (human TRPV1 C621A mutant): complete loss of TRPV1 antagonism

Compound: CC(=O)N[C@@H](Cc1ccccc1)C(=O)N[C@H](CC(C)C)C(=O)N[C@@H](Cc1ccccc1)C(=O)N[C@@H](C(=O)N[C@H](C(=O)N[C@@H](C)C(=O)O)C(C)C)[C@@H](C)O [Compound 6, Nobilamide C] (Ac-F[dL]F[d(aThr)]VA-OH)
- inhibitory activity (in words) (TRPV1 [1]): Neither 6 nor 1a exhibited detectable activity

Compound: C/C=C1\NC(=O)[C@H](C)NC(=O)[C@H](C(C)C)NC(=O)[C@H](NC(=O)[C@H](Cc2ccc(O)cc2)NC(=O)[C@@H](CC(C)C)NC(=O)[C@H](Cc2ccccc2)NC(C)=O)[C@@H](C)OC1=O [Compound 8, Nobilamide E] (Ac-F[dL]Y[d(aThr)]VA[Dhb]; ester 4-C)
- inhibitory activity (in words) (TRPV1 [1]): inactive
